Source: patent US20050196795A1, “Methods for diagnosing and treating bladder cancer” (priority 2004, published 2005)

Assays:
HT-1376 cells = test: Cytokine protein array analysis of secreted cytokines; format: cell-based, human
Experimental: MIF plays a key role in pro-inflammatory gene and cytokine expression. Therefore changes in MIF expression or protein content are likely to affect the expression of additional cytokines. This may in fact be a key in the utility of MIF inhibition in treating bladder adenocarcinoma. To test this, cytokine expression changes induced by MIF inhibition were also evaluated by cytokine protein array analysis (Ray Biotech, Norcross, Ga.), which detected secreted cytokines. […] A summary of the cytokine secretion changes (2 fold or greater) seen with MIF inhibition is described in Table 1.
HT-1376 cells express and secrete 65 of the 79 cytokines present on the array. The three types of MIF inhibition all affected the cytokine secretion patterns of these cells. In table 1, blank cells indicate no difference between the amounts of cytokine secreted by the treated and control cells. Arrows indicate an increase or decrease in the fold amount of cytokine secreted. […] Healon decreased the secreted amount of 27 cytokines.

[1] = tested on: HT-1376 bladder epithelial cells; test: MIF protein synthesis and secretion (cellular and secreted MIF); format: cell-based, human; settings: HT-1376 cells, in vitro treatment
Experimental: In order to establish the relevance of MIF to urogenital disease in humans we sought to determine if human bladder epithelial cells secrete MIF. Human bladder HT-1376 cells (ATCC, Manasas, Va.) were cultured for 48 hours and the culture medium was assayed for MIF using ELISA. In addition, intracellular content of MIF was assayed from cell lysates. These human bladder adenocarcinoma cells synthesize MIF ([…]). The average MIF concentration secreted into the medium by these cells was 15 ng/ml. Expression of MIF was confirmed by RT-PCR analysis. Thus establishing MIF secretion by human bladder epithelia.
Next, we determined if addition of MIF inhibitors in the culture media changed the synthesis or release of MIF by these cells.
A human MIF-specific “sandwich” ELISA technique was developed, based on the capture of MIF by immobilized monoclonal antibody (MAB289, R&D Systems) followed by detection with goat polyclonal anti-MIF affinity purified IgG (BAF289, R&D Systems). This assay was successfully used previously to detect MIF levels in serum and urine. This is another application of this protocol in which MIF levels are detected in urine for bladder cancer diagnosis and prognosis. Intravesical MIF inhibitors are a potential new treatment for bladder cancer. […]

[2] = tested on: Human bladder HT-1376 cells; test: Caspase-3 activity in cell lysates of 48 h cultures (apoptosis); format: cell-based; settings: ANOVA, Newman-Keuls, p<0.05
Experimental: The reduction in cell proliferation seen with MIF inhibitor treatment could possibly be due to induction of apoptosis. To assess this we determined caspase-3 activity within the cell lysates of 48 h cultures.

[3] = fold vs control, ↓ decrease ↑ increase, Not detected = no longer detectable after treatment

How did the “number of secreted cytokines whose amount was decreased” value (HT-1376 cells; 65 of the 79 cytokines on the array expressed) turn out when hyaluronan [Healon] was run?
Its value is 27.

And the “Secreted Cytokines: Ang” value (HT-1376 cells; [3])?
Its value is “Not detected”.

What about the “Secreted Cytokines: Ckβ 8-1” value (HT-1376 cells; [3]) of the same substance?
Its value is “Not detected”.

What about the “Secreted Cytokines: Eotaxin” value (HT-1376 cells; [3]) of the same substance?
Its value is “Not detected”.

And the “Secreted Cytokines: Eotaxin-3” value (HT-1376 cells; [3])?
Its value is “Not detected”.

What about the “Secreted Cytokines: IGF-1” value (HT-1376 cells; [3]) of the same substance?
The value was “Not detected”.

And the “Secreted Cytokines: IL-1β” value (HT-1376 cells; [3])?
The value was “no affect”.

What about the “Secreted Cytokines: MIF” value (HT-1376 cells; [3]) of the same substance?
Its value is “Not detected”.

What about the “Secreted Cytokines: MIP-3α” value (HT-1376 cells; [3]) of the same substance?
Its value is “Not detected”.

What about the “Secreted Cytokines: TNF-α” value (HT-1376 cells; [3]) of the same substance?
Its value is “Not detected”.

And the “decrease in secreted (extracellular) MIF” value [1]?
Its value is 2.8 fold.

What about the “increase in cellular MIF content” value [1] of the same substance?
Its value is 2 fold.

What about the caspase-3 activity [2] of the same substance?
The caspase-3 activity was “no significant increase”.
